± gives the expanded uncertainty stated by the source.
Experiments:
[1] = Crystal; DTA
[2] = Molar enthalpy of transition or fusion; conditions: Crystal; DSC

Structure (SMILES): Nc1cccnn1 [3-pyridazinamine]
- Normal melting temperature [1]: 169.47 ± 0.39 °C
- Molar enthalpy of transition or fusion [2]: 0.629 ± 0.0406 kcal/mol

— the NIST ThermoML archive (doi:10.1021/je300517q)
